Patent US20090192327A1, “METHODS AND COMPOSITIONS FOR INHIBITING BIOFILMS” (Sequoia Sciences, Inc., priority 2004, published 2009)
“Also recorded” adds a separate entry of the source.

How the values were obtained:
Pseudomonas aeruginosa [1] = experiment: Minimum inhibitory concentration (NCCLS broth microdilution); assay type: cell-based; conditions: LB media with 0.2% glucose, 35° C. for 20-24 hours
Protocol: The minimum inhibitory concentrations (MICs) for several of the specific biofilm inhibitors described herein were determined against several targets, including P. aeruginosa, E. coli, and Staphylococcus aureus. The MICs of the biofilm inhibitors were measured using the reference broth microdilution method recommended by the National Committee for Clinical Laboratory Standards (NCCLS). […] In each assay, positive and negative controls were employed, wherein the positive control included an antimicrobial agent with a known potency range that was used to ensure proper assay performance. The negative control, generally, included the solvent in which the test compounds were dissolved. In this example, the wells correlating to the negative controls included ethanol (without any biofilm inhibitors). […] Thus, each well contained a final volume of approximately 200 μl (not including the volume of the concentrated inhibitor). […] After bacterial inoculation and loading of test and control samples, the plate was incubated in an ambient air environment at 35° C. for 20-24 hours. The plate was subsequently rinsed, stained, and analyzed in accordance with the procedures described in Example 1. […] The minimum inhibitory concentrations were calculated as the lowest inhibitor concentration at which biofilm inhibition was observed.

Pseudomonas aeruginosa [2] = experiment: Microtiter plate biofilm inhibition assay (crystal violet); assay type: cell-based; conditions: 10 μg/ml, LB media with 0.2% glucose, 24 hours at room temperature, average of three wells
Protocol: A microtiter plate assay was used to quantitatively measure the effect each tested compound had on the ability of bacteria to form a biofilm. In this example, a concentrated solution of each compound tested was loaded separately into three separate wells of a polystyrene microtiter plate. In addition, each assay included triplicate wells correlating to negative and positive controls. For the positive controls, biofilm inhibitors of known activity were used, whereas no inhibitors were added to wells correlating to negative controls. […] Thus, each well contained a final volume of approximately 200 μl (not including the volume of the concentrated inhibitor). […] The microtiter plates were then placed on a shaker for 24 hours at room temperature. After the 24 hour incubation period, the microtiter plate was removed from the shaker, rinsed, and stained. During the rinsing step, the test compound, media, and bacterial inoculum solution was drained from the plate, approximately 300 μl of 0.1M phosphate buffered saline (PBS) was added to each well, which was subsequently drained from the plate. The rinsing step removed any suspended cells from the assay. 0.1% crystal violet stain was added to each well for approximately 20 minutes. Next, the crystal violet solution was drained from the microtiter plate. The plate was rinsed with PBS as described above four (4) times to remove any excess stain from the plate. Following the PBS rinsing steps, the plate was eluted with 250 μl/well of ethanol, which improved the detection of the stain. The plate was immediately analyzed spectrophotometrically at 540 nm using a microtiter plate reader. The inhibitory effect each compound had on the bacteria's ability to form a biofilm on the surface of each well was determined as follows: The absorbance values observed for each set of three (3) wells correlating with a test compound or control were averaged. The average absorbance value for each test compound was compared to the average absorbance value of the negative control (the positive control was employed to verify proper assay function). In general, biofilm inhibition activity is inversely proportional to absorbance values, whereby, for example, low absorbance values correlate with significant inhibition activity and high absorbance values correlate with small or no inhibition activity. The approximate percent inhibition observed for each compound was calculated by comparing the average absorbance value for each test compound to the average absorbance value for the negative controls. Table 2 summarizes the average percent inhibition observed for the tested compounds listed against biofilms generated by Pseudomonas aeruginosa.

E. coli [3] = experiment: Effect on viability/growth of E. coli (absorbance 620 nm); assay type: cell-based, Escherichia coli; conditions: 1 to 15 μg/mL; LB media; 37° C. for two days; FIG. 1
Protocol: The dose/response behavior of compound 108 was tested against E. coli in LB media with and without 0.2% glucose. First, the effect of compound 108 on the viability of E. coli was measured. Compound 108 was added to a 96-well microtiter plate in triplicate wells to final concentrations of 0, 1, 2, 5, 10, and 15 μg/mL. Compound 108 was added to each well on the plate along with 50 μL of E. coli inoculum and 150 μL of LB and incubated at 37° C. for two days without shaking. After incubation, the plate was analyzed spectrophotometrically at 620 nm to quantitate the approximate levels of E. coli growth. The absorbance values observed for the test wells were averaged and compared to a negative control, i.e., wells containing no biofilm inhibitor.

E. coli JM109 = experiment: Biofilm inhibition assay in 96 well plates (adapted from Pratt and Kolter); assay type: cell-based, Escherichia coli; conditions: 10 μg/ml, LB with or without 0.2% glucose, 37° C. for two days without shaking
Protocol: Such compounds were evaluated using an assay adapted from a protocol reported in Pratt and Kolter, 1998, Molecular Microbiology, 30: 285-293; and Li et al., 2001, J. Bacteriol., 183: 897-908. […] Negative controls included only ethanol (the solvent for each test compound). To quantify the biofilm mass, the suspension culture was removed, the biofilm was washed three times with water, and then stained with 0.1% crystal violet for 20 minutes. Next, the plates were washed three times with water and analyzed by spectrophotometry at 540 nm to quantify the biofilm mass (by comparing the biofilm mass in the wells containing a test compound to that of the control wells).

Staphylococcus aureus = experiment: Minimum inhibitory concentration (NCCLS broth microdilution); assay type: cell-based; conditions: LB media with 0.2% glucose; 35° C. for 20-24 hours
Protocol: (§1) The minimum inhibitory concentrations (MICs) for several of the specific biofilm inhibitors described herein were determined against several targets, including P. aeruginosa, E. coli, and Staphylococcus aureus. The MICs of the biofilm inhibitors were measured using the reference broth microdilution method recommended by the National Committee for Clinical Laboratory Standards (NCCLS).
(§2) […]. The negative control, generally, included the solvent in which the test compounds were dissolved. In this example, the wells correlating to the negative controls included ethanol (without any biofilm inhibitors).
(§3) In this example, 150 μl of sterile media was added to each well (LB media with 0.2% glucose), along with appropriate volumes of concentrated solutions of the inhibitors to be tested, followed by 50 μl of bacterial inoculum. Thus, each well contained a final volume of approximately 200 μl (not including the volume of the concentrated inhibitor). […]. The plate was subsequently rinsed, stained, and analyzed in accordance with the procedures described in Example 1.
(§4) Tables 7, 8, and 9 summarize the data observed and, specifically, the MICs calculated for the several compounds referenced therein against P. aeruginosa, E. coli, and S. aureus, respectively. The minimum inhibitory concentrations were calculated as the lowest inhibitor concentration at which biofilm inhibition was observed.

Escherichia coli = experiment: as above; assay type: cell-based; conditions: LB media with 0.2% glucose, 35° C. for 20-24 hours
Protocol: as §1, §2, §3, §4

E. coli [4] = experiment: Dose/response biofilm assay against E. coli (crystal violet, 540 nm); assay type: cell-based, Escherichia coli
Protocol: In this example, dose/response characteristics of the biofilm inhibitors were measured using compound 108. The assay employed to measure such dose/response characteristics was adapted from a reported protocol. See Pratt and Kolter, 1998, Molecular Microbiology, 30: 285-293; and Li et al., 2001, J. Bacteriol., 183: 897-908.
The biofilm inhibitory effect of compound 108 was then evaluated at different times and concentrations. In the first assay, compound 108 was added to the test system at the same time as the E. coli inoculum. Specifically, compound 108 was added to the system at final concentrations of 0, 1, 2, 5, and 10 μg/mL along with 50 μL of E. coli inoculum and 150 μL of LB media to measure its ability to inhibit the formation of biofilms. In a second assay, compound 108 was added after a biofilm had formed, i.e., 24 hours after the assay plate was inoculated with E. coli in LB media. In a third assay, compound 108 was tested at 0, 1, 2, 5, 10, and 15 μg/mL against E. coli in LB media with 0.2% glucose (whereby compound 108 was introduced into the system at the time of inoculation).
The suspension culture in each of the assay systems described above was drained from the plate and the residual biofilm, if any, was washed three (3) times with water. A solution containing 0.1% crystal violet was added to each well and maintained thereon for approximately 20 minutes. Following the staining procedure, each well was rinsed three (3) times with water. Each well was then analyzed spectrophotometrically in a microtiter plate reader at 540 nm to quantitate approximate biofilm mass and inhibition of biofilm growth by comparison to a negative control, which included inoculum and growth media alone.

[5] = test system: Pseudomonas aeruginosa strain PAO 1; experiment: Rotating disk reactor biofilm test in combination with tobramycin; assay type: cell-based; conditions: 48 hours biofilm; compound 110 approximately 100 μg/mL for 24 hours; tobramycin 100 μg/mL for two hours; polystyrene coupons
Protocol: In this example, compound 110 was tested for biofilm inhibition with Pseudomonas aeruginosa in combination with Tobramycin. Specifically, biofilm formation of P. aeruginosa was evaluated using a standardized biofilm method with a rotating disk reactor (RDR), which is also known as “ASTM Standard Method #E-2196-02.” The rotating disk reactor consisted of a one-liter glass beaker fitted with a drain spout. The bottom of the vessel contained a magnetically driven rotor with six 1.27 cm diameter coupons constructed from polystyrene. The rotor consisted of a star-head magnetic stir bar upon which a disk was affixed to hold the coupons. The vessel (with the stir bar) was placed on a stir plate and rotated to provide fluid shear. A nutrient solution (AB Trace Medium with 0.3 mM glucose, see Table 5 below for specific formulation) was added through a stopper in the top of the reactor at a flow rate of 5 mL/min. The reactor volume was approximately 180 mL. At a volume of 180 mL, the residence time of the reactors was 36 minutes. The reactors were operated at room temperature (c.a. 26° C.). In this example, two RDRs were operated in parallel with one receiving compound 110 and the other serving as an untreated control. […] The plates were incubated for 24 hours at 37° C. before colony forming units (CFU) were determined.

[6] = test system: Staphylococcus epidermidis; experiment: Biofilm inhibition assay against Staphylococcus epidermidis; assay type: cell-based; conditions: final concentration of 10 μg/ml, read-out: Inhibition of biofilm formation by S. epidermidis
[7] = test system: human hepatocellular carcinoma cells (HepG2); experiment: Cytotoxicity, fluorometric detection of mitochondrial activity; assay type: cell-based; conditions: triplicate, approximate, gross cytotoxicity
Source text: Met. […] Chlorpromazine (or its equivalent) was used as a positive control.

Q: What does the source list for `C[C@@H]1CC[C@]2(C(=O)O)CCC3(C)C(=CCC4C5(C)C[C@@H](O)[C@H](O)C(C)(C)C5CCC43C)C2[C@H]1C` (stereo partly drawn) [Compound 108]?
A: MIC (μg/mL) - Pseudomonas aeruginosa (Pseudomonas aeruginosa [1]): >10 µg/mL; Biofilm Inhibition- Pseudomonas aeruginosa (Pseudomonas aeruginosa [2]): 52%; Effect on growth of E. coli (E. coli [3]): did not inhibit the growth; also recorded: does not inhibit the growth; Biofilm Inhibition- Escherichia coli (E. coli JM109): 74%; MIC (μg/mL) - Staphylococcus aureus (Staphylococcus aureus): >32 µg/mL; MIC (μg/mL) - Escherichia coli (Escherichia coli): >15 µg/mL; Prevention of biofilm growth at 15 μg/mL (E. coli [4]; 15 μg/mL, E. coli in LB, added with inoculum, 0 through 50 hours of incubation, FIG. 2): almost completely prevent biofilm growth; Concentration as low as which effective at reducing biofilm mass (E. coli [4]; E. coli in LB with 0.2% glucose, added along with the inoculum, FIG. 5): 1 µg/mL; Concentration as low as which reduces existing biofilm mass (E. coli [4]; E. coli in LB, added 24 hours after inoculation, FIG. 4): 1 µg/mL; Concentration as low as which effective in preventing biofilm formation (E. coli [4]; E. coli in LB, added along with the inoculum, FIGS. 2 and 3): 1 µg/mL; Estimated mass of existing biofilm after 24 hours of incubation with compound (E. coli [4]; each of the concentrations tested (1, 2, 5, 10 μg/mL), added 24 hours after inoculation, approximately 50 hours post inoculation, FIG. 4): decreased significantly

Q: Which results are given for `C[C@H]1[C@H](C)CC[C@]2(C(=O)O)CC[C@]3(C)C(=CC[C@@H]4[C@@]5(C)CC[C@H](O)C(C)(C)[C@@H]5CC[C@]43C)[C@H]12` [Compound 110, ursolic acid]?
A: MIC (Pseudomonas aeruginosa [1]; Pseudomonas aeruginosa, read-out: MIC (μg/mL) - Pseudomonas aeruginosa): > 128 µg/mL; inhibition at 10 µg/mL (Pseudomonas aeruginosa [2]; Pseudomonas aeruginosa): 35%; CFU (in log 10) [5]: 7.1 CFU (in log 10); inhibition at 10 µg/mL [6]: ~25%; inhibition at 10 µg/mL (E. coli JM109; Escherichia coli, JM 109, 48 h): 80%; MIC (Escherichia coli; Escherichia coli, read-out: MIC (μg/mL) - Escherichia coli): > 10 µg/mL; Inhibition at 30 μM - Hep G2 cells [7]: 2%
